Results reported in paper PMC5905968, “Evaluation of the fusion inhibitor P3 peptide as a potential microbicide to prevent HIV transmission in women” (PLoS ONE, 2018).

What was measured:
[1] = tested on: Bacillus subtilis ATCC 6633; experiment: Anti-bacterial activity, MIC by agar diffusion; type: cell-based; conditions: disks, Mueller-Hinton agar, 37°C, maximum concentration tested 228.4 μM
Description: (§1) Anti-bacterial activity of P3 was determined according to CLSI guidelines. The following bacteria were used: reference strains E. coli ATCC 10536, Staphylococcus aureus ATCC 6538, Bacillus subtilis ATCC 6633 and Enterococcus faecalis ATCC 29212; clinical strains of E. coli and Pseudomonas aeruginosa isolated in our laboratory; and strains of Lactobacillus rhamnosus and Lactobacillus plantarum also isolated in our laboratory. The Minimum Inhibitory Concentration (MIC) was determined by the agar diffusion method, in plates of Mueller-Hinton agar or Rogosa agar (for Lactobacilli). Briefly, 10^8cfu/ml bacterial suspensions were prepared in sterile water and spread in the culture media. Sterile disks containing different concentrations of P3 were placed on the inoculated surface. Plates were incubated at 37°C for 24h or 48h. Lactobacilli were incubated at microaerophilic conditions. A negative control made of sterile water was used. Disks of amoxicillin and imipenem were used as positive controls.

[2] = tested on: E. coli (clinical strain); experiment: Anti-bacterial activity, MIC by agar diffusion; type: cell-based; conditions: disks, Mueller-Hinton agar, 37°C, maximum concentration tested 228.4 μM
Description: as §1

E. coli ATCC 10536 = experiment: Anti-bacterial activity, MIC by agar diffusion; type: cell-based; conditions: disks, Mueller-Hinton agar, 37°C, maximum concentration tested 228.4 μM
Description: as §1

[3] = tested on: Enterococcus faecalis ATCC 29212; experiment: Anti-bacterial activity, MIC by agar diffusion; type: cell-based; conditions: disks, Mueller-Hinton agar, 37°C, maximum concentration tested 228.4 μM
Description: as §1

Lactobacillus plantarum = experiment: Anti-bacterial activity, MIC by agar diffusion; type: cell-based; conditions: disks, Rogosa agar, 37°C, microaerophilic, maximum concentration tested 228.4 μM
Description: as §1

Lactobacillus rhamnosus = experiment: Anti-bacterial activity, MIC by agar diffusion; type: cell-based; conditions: disks, Rogosa agar, 37°C, microaerophilic, maximum concentration tested 228.4 μM
Description: as §1

[4] = tested on: Pseudomonas aeruginosa (clinical strain); experiment: Anti-bacterial activity, MIC by agar diffusion; type: cell-based; conditions: disks, Mueller-Hinton agar, 37°C, maximum concentration tested 228.4 μM
Description: as §1

[5] = tested on: Staphylococcus aureus ATCC 6538; experiment: Anti-bacterial activity, MIC by agar diffusion; type: cell-based; conditions: disks, Mueller-Hinton agar, 37°C, maximum concentration tested 228.4 μM
Description: as §1

[6] = tested on: vaginal epithelium of BALB/c mice; experiment: BALB/c mice vaginal irritation test with histological score; type: in vivo; set-up: key to Epithelial lesion / Inflammatory infiltrate / Vascular congestion / Edema/fibrosis / Total Score: 0 (no change) when no injury or the observed changes were within normal range; 1 (minimum) when changes were sparse but exceeded those considered normal; 2 (light) when injuries were identifiable but with no severity; 3 (moderate) for significant injury that could increase in severity; 4 (very serious) for very serious injuries that occupy most of the analyzed tissue; conditions: for Edema/fibrosis / Epithelial lesion / Inflammatory infiltrate / Vascular congestion / Total Score: 7 days; for Total Score: sum of the four lesion scores
Description: Female BALB/c mice (6–8 weeks-old) (Charles River Laboratories, Wilmington, MA) were pretreated subcutaneously with 2mg of medroxyprogesterone acetate (Depo-Provera; Pfizer, NY, USA) in PBS (Lonza, Verviers, Belgium). After five days, 30μl of test formulation with different doses of P3 diluted in PBS was applied intravaginally daily for 7 days by vaginal gavage to animals previously anesthetized with isoflurane (Forane, Abbott, Madrid). Controls included mice that received PBS (placebo group) and 3% nonoxynol-9 (N9) in PBS (irritation control group). On the eighth day, mice were sacrificed and genital tract tissue were extracted and fixed in 4% paraformaldehyde for histological analysis. The animals were distributed in groups of three mice each: group placebo only treated with PBS (1–3), group A treated with dose of 0.06mg/day ([…]) of P3 in PBS (4–6), group B treated with dose of 0.2mg/day (1522.7 μM) of P3 in PBS (7–9), group C treated with dose of 0.4mg/day (3045.3 μM) of P3 in PBS (10–12) and group irritation control treated with 3% N9 in PBS (13–15).
The presence of histological lesions in the mouse vaginas was evaluated with hematoxylin-eosin staining. Samples were embedded in paraffin by submersion in increasing concentrations of ethanol in water (Rectapur, VWR, England), two baths of xylene (Analar (VWR, England) and another of paraffin, before being placed in a paraffin mold. Subsequently, they were cut using a semimotorized microtome (RM2145 Leica, Germany) and processed for staining. For dewaxing, samples were submersed into two baths of xylene solution (10 min) and three baths in descending order of ethanol (100%, 90% and 70%) (5 min), before being stained with hematoxylin (Merck, Germany) for 5 min and eosin (Merck, Germany) for another 5 min. Post-eosin staining dehydration was performed with passages in increasing concentrations of ethanol (70%, 90% and 100%) and a bath of xylene solution. Finally, they were mounted with D.P.X. (Prolabo, VWR, Spain).
The existence of injury in vaginal epithelium, inflammatory infiltrate, vascular congestion and/or edema in the submucosa was evaluated in each biological sample. The values (score) assigned for each of these lesions were: 0 (no change) when no injury or the observed changes were within normal range; 1 (minimum) when changes were sparse but exceeded those considered normal; 2 (light) when injuries were identifiable but with no severity; 3 (moderate) for significant injury that could increase in severity; 4 (very serious) for very serious injuries that occupy most of the analyzed tissue. These values were added up and determined the level of vaginal irritation as minimum 1–4, average 5–8, moderate 9–11 and severe 12–16 [34].

[7] = 456 μM/day P3 in PBS intravaginally, mouse 4
[8] = 456 μM/day P3 in PBS intravaginally, mouse 5
[9] = 456 μM/day P3 in PBS intravaginally, mouse 6
[10] = 1522.7 μM/day P3 in PBS intravaginally, mouse 7
[11] = 1522.7 μM/day P3 in PBS intravaginally, mouse 8
[12] = 1522.7 μM/day P3 in PBS intravaginally, mouse 9
[13] = 3045.3 μM/day P3 in PBS intravaginally, mouse 10
[14] = 3045.3 μM/day P3 in PBS intravaginally, mouse 11
[15] = 3045.3 μM/day P3 in PBS intravaginally, mouse 12

CC[C@H](C)[C@H](NC(=O)[C@H](CC(N)=O)NC(=O)[C@H](C)NC(=O)[C@H](CCC(=O)O)NC(=O)[C@H](CC(C)C)NC(=O)[C@H](Cc1ccc(O)cc1)NC(=O)[C@H](CCCNC(=N)N)NC(=O)[C@@H](NC(=O)[C@H](CCC(N)=O)NC(=O)[C@H](CCC(N)=O)NC(=O)[C@H](CCC(=O)O)NC(=O)[C@H](Cc1c[nH]c2ccccc12)NC(=O)[C@H](CCC(=O)O)NC(=O)[C@H](CCC(N)=O)NC(=O)[C@H](Cc1c[nH]c2ccccc12)NC(C)=O)C(C)C)C(=O)N[C@@H](CO)C(=O)N[C@@H](CCC(N)=O)C(=O)N[C@@H](CCCNC(=N)N)C(=O)N[C@@H](CC(C)C)C(=O)N[C@@H](CCC(=O)O)C(=O)N[C@@H](CCC(N)=O)C(=O)N[C@@H](C)C(=O)N[C@@H](CCC(N)=O)C(=O)N[C@H](C(=O)N[C@@H](CCC(N)=O)C(=O)N[C@@H](CCC(N)=O)C(=O)N[C@@H](CCC(=O)O)C(=O)N[C@@H](CCCCN)C(=O)N[C@@H](CC(N)=O)C(=O)N[C@@H](CCSC)C(=O)N[C@@H](Cc1ccc(O)cc1)C(=O)N[C@@H](CCC(=O)O)C(=O)N[C@@H](CC(C)C)C(=O)N[C@@H](CCC(N)=O)C(N)=O)[C@@H](C)CC [P3]
MIC [1]: > 228.4 µM | MIC [2]: > 228.4 µM | MIC (E. coli ATCC 10536): > 228.4 µM | MIC [3]: > 228.4 µM | MIC (Lactobacillus plantarum): > 228.4 µM | MIC (Lactobacillus rhamnosus): > 228.4 µM | MIC [4]: > 228.4 µM | MIC [5]: > 228.4 µM | Edema/fibrosis [6, 7]: 0 | Epithelial lesion [6, 7]: 1 | Inflammatory infiltrate [6, 7]: 0 | Vascular congestion [6, 7]: 1 | Total Score [6, 7]: 2 | Edema/fibrosis [6, 8]: 1 | Epithelial lesion [6, 8]: 1 | Inflammatory infiltrate [6, 8]: 1 | Vascular congestion [6, 8]: 0 | Total Score [6, 8]: 3 | Edema/fibrosis [6, 9]: 0 | Epithelial lesion [6, 9]: 0 | Inflammatory infiltrate [6, 9]: 0 | Vascular congestion [6, 9]: 0 | Total Score [6, 9]: 0 | Edema/fibrosis [6, 10]: 0 | Epithelial lesion [6, 10]: 1 | Inflammatory infiltrate [6, 10]: 1 | Vascular congestion [6, 10]: 1 | Total Score [6, 10]: 3 | Edema/fibrosis [6, 11]: 0 | Epithelial lesion [6, 11]: 0 | Inflammatory infiltrate [6, 11]: 0 | Vascular congestion [6, 11]: 1 | Total Score [6, 11]: 1 | Edema/fibrosis [6, 12]: 0 | Epithelial lesion [6, 12]: 0 | Inflammatory infiltrate [6, 12]: 2 | Vascular congestion [6, 12]: 2 | Total Score [6, 12]: 4 | Edema/fibrosis [6, 13]: 0 | Epithelial lesion [6, 13]: 4 | Inflammatory infiltrate [6, 13]: 3 | Vascular congestion [6, 13]: 3 | Edema/fibrosis [6, 14]: 0 | Epithelial lesion [6, 14]: 2 | Inflammatory infiltrate [6, 14]: 0 | Vascular congestion [6, 14]: 1 | Total Score [6, 14]: 3 | Edema/fibrosis [6, 15]: 1 | Epithelial lesion [6, 15]: 4 | Inflammatory infiltrate [6, 15]: 2 | Vascular congestion [6, 15]: 2 | injuries (histology) ([6]; group A, 0.06 mg/day (456.8 μM) P3, 7 days): minimal or even absent | level of irritation of the vaginal wall ([6]; group B, 0.2 mg/day (1522.7 μM) P3, 7 days): minimal | score of vaginal irritation ([6]; group C, 0.4 mg/day (3045.3 μM) P3, 7 days, mice 10 and 12): moderate (moderate 9–11) | irritation of the vaginal epithelium ([6]; group C, 0.4 mg/day (3045.3 μM) P3, 7 days, the other mouse (sample 11)): minimal
